`Nc1ccc(C(=O)[O-])cc1.[K+]` gave a solubility (mole fraction) (in DMF, 283.15 K) of 0.00143, a solubility (mole fraction) (in DMF, 293.15 K) of 0.00146 and a solubility (mole fraction) (in DMF, 303.15 K) of 0.00153. For the same molecule, the solubility (mole fraction) (in DMF, 313.15 K) was 0.00154, the solubility (mole fraction) (in DMF, 323.15 K) was 0.00159 and the solubility (mole fraction) (in DMF, 333.15 K) was 0.00161. It also gave a solubility (mole fraction) (in ethanol, 283.15 K) of 0.00224, a solubility (mole fraction) (in ethanol, 293.15 K) of 0.00232 and a solubility (mole fraction) (in ethanol, 303.15 K) of 0.00238. For the same molecule, the solubility (mole fraction) (in ethanol, 313.15 K) was 0.00244, the solubility (mole fraction) (in ethanol, 323.15 K) was 0.0025 and the solubility (mole fraction) (in ethanol, 333.15 K) was 0.00252. It also gave a solubility (mole fraction) (in ethyl acetate, 283.15 K) of 0.000198, a solubility (mole fraction) (in ethyl acetate, 293.15 K) of 0.000205 and a solubility (mole fraction) (in ethyl acetate, 303.15 K) of 0.000211. The solubility (mole fraction) (in ethyl acetate, 313.15 K) was 0.000216, the solubility (mole fraction) (in ethyl acetate, 323.15 K) was 0.000219 and the solubility (mole fraction) (in ethylene glycol, 283.15 K) was 0.0973. The solubility (mole fraction) (in ethylene glycol, 293.15 K) was 0.115, the solubility (mole fraction) (in ethylene glycol, 303.15 K) was 0.127 and the solubility (mole fraction) (in ethylene glycol, 313.15 K) was 0.145. For the same molecule, the solubility (mole fraction) (in ethylene glycol, 323.15 K) was 0.156, the solubility (mole fraction) (in ethylene glycol, 333.15 K) was 0.172 and the solubility (mole fraction) (in formamide, 283.15 K) was 0.0794. It also gave a solubility (mole fraction) (in formamide, 293.15 K) of 0.0929, a solubility (mole fraction) (in formamide, 303.15 K) of 0.104 and a solubility (mole fraction) (in formamide, 313.15 K) of 0.112. It also gave a solubility (mole fraction) (in formamide, 323.15 K) of 0.119, a solubility (mole fraction) (in formamide, 333.15 K) of 0.125 and a solubility (mole fraction) (in isopropanol, 283.15 K) of 0.000366. The solubility (mole fraction) (in isopropanol, 293.15 K) was 0.000416, the solubility (mole fraction) (in isopropanol, 303.15 K) was 0.000486 and the solubility (mole fraction) (in isopropanol, 313.15 K) was 0.000496. The solubility (mole fraction) (in isopropanol, 323.15 K) was 0.00052, the solubility (mole fraction) (in isopropanol, 333.15 K) was 0.000556 and the solubility (mole fraction) (in n-propanol, 283.15 K) was 0.000852. For the same molecule, the solubility (mole fraction) (in n-propanol, 293.15 K) was 0.000874, the solubility (mole fraction) (in n-propanol, 303.15 K) was 0.000884 and the solubility (mole fraction) (in n-propanol, 313.15 K) was 0.000929. The solubility (mole fraction) (in n-propanol, 323.15 K) was 0.000952, the solubility (mole fraction) (in n-propanol, 333.15 K) was 0.000981 and the solubility (mole fraction) (in water, 278.15 K) was 0.092. The solubility (mole fraction) (in water, 288.15 K) was 0.11, the solubility (mole fraction) (in water, 298.15 K) was 0.125 and the solubility (mole fraction) (in water, 308.15 K) was 0.144. It also gave a solubility (mole fraction) (in water, 318.15 K) of 0.161, a solubility (mole fraction) (in water, 328.15 K) of 0.177 and a solubility (mole fraction) (in water, 338.15 K) of 0.194.

Source: BigSolDB 2.1
